Data on six compounds can be found in patent US20120088730A1, “USE OF ANGIOTENSIN CONVERTING ENZYME (ACE) DOMAIN SPECIFIC INHIBITORS TO INHIBIT OR ENHANCE CYTOKINE PRODUCTION AND ALTER IMMUNE RESPONSE” (CEDARS-SINAI MEDICAL CENTER, priority 2009, published 2012).

In one data set the test system is TNF. Description: TNF with AT1R inhibitor, ACE7 (N-terminus KO) vs wild type (FIG. 12). The class given is cell-based, mouse. Conditions: ACE7 (N-terminus KO) and wild type. How it is done: FIG. 12 depicts, in accordance with an embodiment of the present invention, AT1R inhibitor losartan can lower TNF, but cannot eliminate the difference between ACE7 (N-terminus KO) and wild type.
(§1) To obtain large numbers of macrophages, N-KO, C-KO and WT mice were injected intraperitoneally with thioglycolate. After four days, cells were collected, washed and counted. Aliquots of 1×10^6 cells were adhered in 24 well plates. After 2 hrs, non-adherent cells were removed and the plates were visually evaluated to verify that wells contained nearly identical numbers of adherent cells. Media containing 1 ug/ml of LPS (a model activator of macrophages) was then added. After 24 hrs, supernatants were collected and the concentrations of TNF-α and IL-12p40 (one of the 2 proteins comprising IL-12) were determined by ELISA (eBioscience). However, there was a marked difference in cytokine expression profile; macrophages derived from N-KO mice producing far more TNF- a and IL-12p40 than either C-KO or WT mice (p values for TNF-α: N-KO vs. C-KO or WT, p<0.001; p values for IL12p40: N-KO vs. C-KO or WT, p<0.02). Further, there was a clear trend of macrophages from C-KO mice producing less cytokines than wild-type cells (TNF- a: C-KO vs. WT, p<0.07; IL12p40: C-KO vs. WT, p<0.02). Thus, in the absence of ACE N-terminal catalytic activity, TNF-α and IL-12 cytokine expression was increased. […]

For data set [1], the target named is AcSDAcKP (synthetic ACE substrate). Briefly: cell-based or functional assay.
The next data set has as its system cardiac fibroblasts. The settings on record: cited from earlier work.
The subject of another data set is macrophages. Conditions: cited from earlier work.
For data set [2], the system named is 2-kidney, 1-clip hypertensive rats. The settings on record: osmotic mini-pump; cited from earlier work.
Data set [3] relates to angiotensin II-induced hypertension. Conditions: secondary to angiotensin II-induced hypertension; cited from earlier work.
In another data set the test system is Smad2. Conditions: cited from earlier work.
Data set [4] concerns aldosterone-salt hypertension. Conditions: cited from earlier work.
For a further data set, the target named is T1, ACE C-domain (Homo sapiens, UniProt P12821).
T1 construct: with a dissociation constant more than 3 orders of magnitude lower for the ACE C-domain than the N-domain
The settings on record: lower for C-domain; cited from earlier work.

The conditions of data set [5]: cited from earlier work.
The subject of the next data set is cytokine expression. Briefly: cytokine expression with ACE inhibitor, ACE7 (N-terminus KO) vs wild type (FIG. 11). The class given is cell-based, mouse. Conditions: ACE7 (N-terminus KO) and wild type. How it is done: as §1, with “increased. In the absence of C-terminal catalytic activity, there is a strong reduction of production of these cytokines.” for “increased.”

The target of data set [6] is Hip-His-Leu (HHL) (synthetic ACE substrate). Briefly: cell-based or functional assay.

Ends that are not written are not given here.

T1 sequence (P12821 643-1222 limits assumed): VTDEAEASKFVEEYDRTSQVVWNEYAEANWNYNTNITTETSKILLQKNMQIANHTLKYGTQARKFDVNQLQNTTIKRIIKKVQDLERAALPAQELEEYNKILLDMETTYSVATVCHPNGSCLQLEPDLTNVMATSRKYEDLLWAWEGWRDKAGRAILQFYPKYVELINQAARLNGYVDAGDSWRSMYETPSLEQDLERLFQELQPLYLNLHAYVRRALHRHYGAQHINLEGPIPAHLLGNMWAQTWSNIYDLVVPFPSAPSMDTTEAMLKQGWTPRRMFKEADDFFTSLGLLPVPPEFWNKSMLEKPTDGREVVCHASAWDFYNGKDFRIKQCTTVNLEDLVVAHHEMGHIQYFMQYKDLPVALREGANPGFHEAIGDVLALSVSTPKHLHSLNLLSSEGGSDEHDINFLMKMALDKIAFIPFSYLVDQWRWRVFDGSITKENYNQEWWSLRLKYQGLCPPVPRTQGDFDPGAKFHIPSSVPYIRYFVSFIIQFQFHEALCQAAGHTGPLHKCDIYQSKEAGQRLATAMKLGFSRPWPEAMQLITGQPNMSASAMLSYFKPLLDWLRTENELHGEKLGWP

`CCCCc1nc(Cl)c(CO)n1Cc1ccc(-c2ccccc2-c2nn[nH]n2)cc1` [losartan]: the TNF result with TNF was “can lower TNF”.

“ACE of ACE 7/7 (N-KO) mice: mouse angiotensin converting enzyme with the N-terminal catalytic site inactivated (HEMGH motif converted to KEMGK) (from UniProt P09470 35-1237)” gave a catalytic activity of plasma (cleavage efficiency against wild-type mice) (% of wild-type efficiency) in data set [1] of 3.

With “Acetyl-SerAspLysPro (Ac-SDKP) [AcSDKP, tetrapeptide cleaved from thymosin-β4 by prolyl oligopeptidase]”, the “growth of cardiac fibroblasts” value in the data set on cardiac fibroblasts was “inhibits the growth of cardiac fibroblasts”. For the same compound, the “macrophage production of TNF” value with macrophages was “reducing macrophage production of TNF”. In addition, in data set [2], the blood pressure entry was “no effect on blood pressure” and the “development of fibrosis in the heart” value was “prevented the development of fibrosis in the heart”. Also, in data set [3], the aortic fibrosis result was “reduced aortic fibrosis”. Also, the “TGF-β1 stimulated phosphorylation of Smad2” value with Smad2 is listed as “inhibits”. Besides, in data set [4], the “collagen deposition and cell proliferation in the heart and kidney” value was “prevented increased collagen deposition and cell proliferation”.

Take `O=C(NC(Cc1ccccc1)P(=O)(O)C1CCCC1C(=O)NC(Cc1c[nH]c2ccccc12)C(=O)O)OCc1ccccc1` (centres unmarked) [RXPA 380]: the “dissociation constant for the ACE C-domain relative to the N-domain” value at ACE C-domain is listed as “more than 3 orders of magnitude”. The effectiveness in mice result in data set [5] (mice) was “effective”. Besides, the stability in vivo entry in [5] (mouse, in vivo) is listed as “stable”.

As for `NCCCC[C@H](N[C@@H](CCc1ccccc1)C(=O)O)C(=O)N1CCC[C@H]1C(=O)O` [lisinopril], the cytokine expression entry in the data set on cytokine expression is listed as “can lower cytokine expression”.

For the compound “ACE of ACE 13/13 (C-KO) mice: mouse angiotensin converting enzyme with the C-terminal catalytic site inactivated (histidines of HEMGH mutated to lysines) (from UniProt P09470 35-1237)”, the catalytic activity of plasma (hydrolysis efficiency against wild-type mice) (% of wild-type efficiency) in [6] turned out to be 18.
